Reference: publication PMC8672371 (Biochemistry, 2021)
Substitutions are numbered along the chain they refer to.

Key:
RnVip [1] = biological target: T1, RnVip (Rattus norvegicus, UniProt O70600, H77A); test: ddhCTP formation; format: biochemical; settings: SAM, dithionite
T1 sequence (O70600 1-360 H77A): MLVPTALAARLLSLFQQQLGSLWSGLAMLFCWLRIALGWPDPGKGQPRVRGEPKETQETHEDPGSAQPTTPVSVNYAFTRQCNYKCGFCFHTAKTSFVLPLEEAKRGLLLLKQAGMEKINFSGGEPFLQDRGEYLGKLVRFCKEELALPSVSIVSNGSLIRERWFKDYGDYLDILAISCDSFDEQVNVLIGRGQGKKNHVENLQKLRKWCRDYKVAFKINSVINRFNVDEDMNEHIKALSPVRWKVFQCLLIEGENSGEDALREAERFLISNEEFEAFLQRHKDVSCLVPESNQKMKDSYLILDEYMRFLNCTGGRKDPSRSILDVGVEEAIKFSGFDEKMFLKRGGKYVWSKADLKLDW

MlVip = MlVip (Methanofollis liminatans, UniProt J0S9F5); test: ddhNTP product by LC-MS; format: biochemical; settings: SAM, dithionite; labelled compound (deuCTP)
NvVip = NvVip (Nematostella vectensis, UniProt A7RNF3); test: X-ray crystal structure; format: binding; settings: 1.42 Å, [4Fe-4S], anaerobic, active site
RnVip [2] = biological target: T2, RnVip (Rattus norvegicus, UniProt O70600, K317A); test: ddhCTP formation; format: biochemical; settings: SAM, dithionite
T2 sequence (O70600 1-360 K317A): T1 sequence (O70600 1-360 H77A) with A77H, K317A

TvVip = TvVip (Trichoderma virens, UniProt G9MQB8); test: X-ray crystal structure; format: binding; settings: 3.2 Å; complex with SAM; active site

## Nc1ccn([C@@H]2O[C@H](COP(=O)(O)OP(=O)(O)OP(=O)(O)O)[C@@H](O)[C@H]2O)c(=O)n1 [CTP]
RnVip [1]
  ddhCTP formation: We generated the RnVip variant H77A and the MmVip variant H79A
MlVip
  ddhNTP product by LC-MS; deu5'-dA formation: only deuCTP was converted to the respective ddhNTP product by MlVip
NvVip; complex with SAM
  X-ray crystal structure: omit maps show strong density for CTP in the catalytic site
RnVip [2]
  ddhCTP formation: we generated a lysine to alanine variant in RnVip (K317A

## C[S+](CC[C@H](N)C(=O)O)C[C@H]1O[C@@H](n2cnc3c(N)ncnc32)[C@H](O)[C@@H]1O (stereo partly drawn) [SAM]
NvVip; complex with CTP
  X-ray crystal structure: The asymmetric unit of NvVip contains one protein chain, a 4Fe-4S cluster, CTP, and SAM

## O=c1ccn([C@@H]2O[C@H](COP(=O)(O)OP(=O)(O)OP(=O)(O)O)[C@@H](O)[C@H]2O)c(=O)[nH]1 [UTP]
TvVip
  X-ray crystal structure: Crystals of TvVip bound to SAM and UTP exhibited diffraction
